Columns and labels:
HFF+hTERT cells = assay: Immunofluorescence and telomere FISH (TIF) assay; format: cell-based, human; conditions: for effect on 6-thio-dG-induced TIFs: 10 μM of ATM or 50 nM ATR specific inhibitor 2 hours prior to and with 3 μM 6-thio-dG for 48 hours
Method: Immunofluorescence and telomere FISH assay. Cells were fixed with 4% paraformaldehyde (PFA) for 15 minutes. Cells were then washed, permeabilized with 0.5% Triton-X-100 in PBS, blocked with 5% donkey serum and 0.3% Triton X-100 in TBS and incubated with primary antibodies against γH2A.X (1:500, rabbit), or cleaved caspase-3 (1:400, rabbit) (Cell Signaling); and/or TRF2 (1:200) (Mouse; NOVUS), as applicable, for overnight followed by TBST wash (×3) next day. Corresponding secondary antibodies were added (Alexa-Fluor 488- or 594-conjugated donkey anti-rabbit, or anti-mouse (1:500) (Jackson ImmunoResearch) for 1 hour and washed with TBS (×3) before mounting. For telomere-FISH, fixed and permeabilized cells were dehydrated with a graded ethanol concentration series, air-dried and covered with hybridization solution (70% formamide, 0.5% Blocking Reagent (Roche Diagnostics) diluted in 100 mM maleic acid and 150 mM sodium chloride, and 10 mM Tris (pH 7.5)) with 300 ng/mL PNA(CCCTAA)3-Cy3 (SEQ ID NO: 1) (Biosynthesis, USA), and denatured for 6 minutes at 84° C. followed by hybridization for at least two hours at room temperature. Cells were washed three times with 70% formamide and 10 mM Tris (pH 7.5) and three times with TBS. Finally, they were embedded with mounting media with DAPI (Vector Laboratories H1200).

HFF + hTERT = assay: Cell growth assay (viable cell count, trypan blue exclusion); format: cell-based, human; conditions: pre-treated with IMT 2 μM 3 days, then 6-thio-dG 3 μM 3 days
telomerase = assay: Telomerase activity assay (TRAP) in treated HFF+hTERT cells; format: cell-based, human; conditions: IMT 2 μM
Method: Telomerase activity assay. Telomerase activity was assayed using the TRAPeze Telomerase Detection Kit (Millipore). Cell extracts were prepared according to the manufacturer's protocol. 50-100 ng of total protein was used to assess the telomerase activity by performing polyacrylamide gel (12.5%) electrophoresis.

[1] = children with recurrent CNS malignancies; thrombocytopenia that led to bleeding; cited from earlier work
[2] = system: CD138-positive and CD138-negative cancer stem cells; conditions: by five weeks; cited from earlier work
[3] = system: CD138-negative Multiple Myeloma Cancer Stem Cells; conditions: cells from bone marrow aspirates of patients with multiple myeloma; cited from earlier work

Q: With `O=c1cc(-c2cccc3c2Sc2ccccc2S3)oc(N2CCOCC2)c1` [ATM inhibitor, reference compound] as the compound, how does the “effect on 6-thio-dG-induced TIFs” value (HFF+hTERT cells) read?
A: reduction in the number of cells with TIFs

Q: With `CNCc1ccc(-c2cc(-c3nc(-c4ccc(S(=O)(=O)C(C)C)cc4)cnc3N)on2)cc1` [ATR inhibitor, reference compound] as the compound, how does the “effect on 6-thio-dG-induced TIFs” value (HFF+hTERT cells) read?
A: reduction in the number of cells with TIFs

Q: What does the source list for imetelstat?
A: inhibition of cell growth by 6-thio-dG in the combination treatment (HFF + hTERT): markedly reduced; effect on 6-thio-dG-induced TIF formation (HFF+hTERT cells; IMT 2 μM pre-treatment, then 6-thio-dG 3 μM 3 days): inhibited 6-thio-dG-induced TIF formation; genomic DNA damage (γH2AX foci) in cells treated with 6-thio-dG (HFF+hTERT cells; IMT 2 μM with 6-thio-dG 3 μM 3 days): reduced the genomic DNA damage; telomerase activity (TRAP assay) (telomerase): inhibition of telomerase activity; tolerability and efficacy of regimen [1]: intolerable and ineffective; colony forming potential [2]: eliminated the colony forming potential; in vitro clonogenic growth [3]: inhibited the in vitro clonogenic growth

From patent US12594293B2, “Use of 6-thio-dG to treat therapy-resistant telomerasepositive pediatric brain tumors” (The Board of Regents of The University of Texas System, priority 2018, dated 2026)
